Values of other authors in patent US20190314298A1, “COMPOSITIONS FOR PREVENTING AND RELIEVING HANGOVER & LIVER DAMAGE WHICH OCCUR DUE TO ALCOHOL CONSUMPTION” (priority 2018, published 2019).

Details: biological activities listed in background table

Compound	Activity
CC(C)=CC(=O)CC(C)c1ccc(C)cc1 (centres unmarked) [Ar-turmerone]	snakebite
O=C(C=Cc1ccc(O)cc1)CC(=O)C=Cc1ccc(O)cc1 [Bisdemethoxy curcumin]	antioxidant
COc1cc(/C=C/C(=O)/C=C(O)\C=C\c2ccc(OC)c(OC)c2)ccc1O [Methylcurcumin]	L. amazonensis
COc1cc(/C=C/C(=O)CC(=O)/C=C/c2ccc([O-])c(OC)c2)ccc1[O-].[Na+].[Na+] [Sodium curcuminate]	anti-inflammatory
Demethoxy curcumin	antioxidant
